Laboratory results as given in ChEMBL document CHEMBL5370558, “Modifications of geldanamycin via CuAAC altering affinity to chaperone protein Hsp90 and cytotoxicity” (Eur J Med Chem, 2023).
Starred links: 1 amine or outer side, 2 acyl side, 3 side chain; linkers in the order of their positions; H or OH if unused. Positions of bridges follow the written chain, without caps; N, C: chain ends. Non-standard residues stand in square brackets, D forms with d. Residues, ends and D or L forms follow the SMILES beside them. Chains are numbered I, II in the order given. Actinocin(9to1) = Cc1c2oc3c(C)ccc(C(=O)[*:1])c3nc-2c(C(=O)[*:2])c(N)c1=O; NMeV = CN[C@H](C(=O)O)C(C)C; Sar = CNCC(=O)O

Experiments:
[1] = target: Heat shock protein HSP 90-alpha (Homo sapiens) (UniProt P07900)
Description: Binding affinity to recombinant human HSP90alpha assessed as change in entropy by isothermal titration calorimetry assay

[2] = Cytotoxicity against human HDF cells assessed as cell growth inhibition incubated for 72 hrs by SRB assay; format: toxicity, cell-based; details: HDF cells (normal human dermal fibroblasts, NHDF)
SK-OV-3 = assay: Anticancer activity against human SK-OV-3 cells assessed as cell growth inhibition incubated for 72 hrs by SRB assay; format: functional, cell-based; details: Homo sapiens, SK-OV-3, 72 h
SK-BR-3 = assay: Anticancer activity against human SK-BR-3 cells assessed as cell growth inhibition incubated for 72 hrs by SRB assay; format: functional, cell-based; details: Homo sapiens, SK-BR-3, 72 h
PC-3 = assay: Anticancer activity against human PC-3 cells assessed as cell growth inhibition incubated for 72 hrs by SRB assay; format: functional, cell-based; details: Homo sapiens, PC-3, 72 h
[3] = Selectivity index, ratio of IC50 for cytotoxicity against human HDF cells to IC50 for anticancer activity against human SK-OV-3 cells; format: cell-based; details: HDF cells versus SK-OV-3 cells, read-out: Ratio IC50
[4] = Selectivity index, ratio of IC50 for cytotoxicity against human HDF cells to IC50 for anticancer activity against human PC-3 cells; format: toxicity, cell-based; details: HDF cells versus PC-3 cells, read-out: Ratio IC50
[5] = Selectivity index, ratio of IC50 for cytotoxicity against human HDF cells to IC50 for anticancer activity against human SK-BR-3 cells; format: toxicity, cell-based; details: HDF cells versus SK-BR-3 cells, read-out: Ratio IC50

Compound: CO[C@H]1/C=C\C=C(/C)C(=O)NC2=CC(=O)C(NCc3cn(Cc4ccc(Cl)cc4)nn3)=C(C[C@@H](C)C[C@H](OC)[C@H](O)[C@@H](C)/C=C(\C)[C@@H]1OC(N)=O)C2=O
- TdeltaS [1]: -0.86 kcal/mol
- IC50 at 72 h [2]: 0.44 µM
- IC50 (SK-OV-3): 0.23 µM
- IC50 (SK-BR-3): 0.24 µM
- IC50 (PC-3): 0.23 µM

Compound: CO[C@H]1/C=C\C=C(/C)C(=O)NC2=CC(=O)C(NCc3cn(C/C=C/c4ccccc4)nn3)=C(C[C@@H](C)C[C@H](OC)[C@H](O)[C@@H](C)/C=C(\C)[C@@H]1OC(N)=O)C2=O
- TdeltaS [1]: -0.884 kcal/mol
- IC50 at 72 h [2]: 3.38 µM
- IC50 (SK-OV-3): 1.08 µM
- IC50 (SK-BR-3): 1.16 µM
- IC50 (PC-3): 1.11 µM

Compound: CO[C@H]1/C=C\C=C(/C)C(=O)NC2=CC(=O)C(NCc3cn(CCCOS(=O)(=O)c4ccc(C)cc4)nn3)=C(C[C@@H](C)C[C@H](OC)[C@H](O)[C@@H](C)/C=C(\C)[C@@H]1OC(N)=O)C2=O
- TdeltaS [1]: 1.41 kcal/mol
- IC50 at 72 h [2]: 0.44 µM
- IC50 (SK-OV-3): 0.45 µM
- IC50 (SK-BR-3): 0.44 µM
- IC50 (PC-3): 0.46 µM

Compound: CO[C@H]1/C=C\C=C(/C)C(=O)NC2=CC(=O)C(NCCn3cc(CC(=O)O)nn3)=C(C[C@@H](C)C[C@H](OC)[C@H](O)[C@@H](C)/C=C(\C)[C@@H]1OC(N)=O)C2=O
- selectivity ratio [3]: 1.45
- IC50 at 72 h [2]: 3.88 µM
- IC50 (SK-OV-3): 2.68 µM
- selectivity ratio [4]: 1.83
- selectivity ratio [5]: 1.37
- IC50 (SK-BR-3): 2.84 µM
- IC50 (PC-3): 2.12 µM

Compound: CO[C@H]1/C=C\C=C(/C)C(=O)NC2=CC(=O)C(NCc3cn(Cc4ccc([N+](=O)[O-])cc4)nn3)=C(C[C@@H](C)C[C@H](OC)[C@H](O)[C@@H](C)/C=C(\C)[C@@H]1OC(N)=O)C2=O
- selectivity ratio [3]: 1.05
- IC50 at 72 h [2]: 0.78 µM
- IC50 (SK-OV-3): 0.74 µM
- selectivity ratio [4]: 1.28
- selectivity ratio [5]: 1.05
- IC50 (SK-BR-3): 0.74 µM
- IC50 (PC-3): 0.69 µM

Compound: CO[C@H]1/C=C\C=C(/C)C(=O)NC2=CC(=O)C(NCc3cn(Cc4ccc(Br)cc4)nn3)=C(C[C@@H](C)C[C@H](OC)[C@H](O)[C@@H](C)/C=C(\C)[C@@H]1OC(N)=O)C2=O
- selectivity ratio [3]: 2.41
- IC50 at 72 h [2]: 0.65 µM
- IC50 (SK-OV-3): 0.27 µM
- selectivity ratio [4]: 2.1
- selectivity ratio [5]: 1.76
- IC50 (SK-BR-3): 0.37 µM
- IC50 (PC-3): 0.31 µM

Compound: CO[C@H]1/C=C\C=C(/C)C(=O)NC2=CC(=O)C(NCc3cn([C@@H]4O[C@H](COCc5ccccc5)[C@@H](OCc5ccccc5)[C@H](OCc5ccccc5)[C@H]4NC(C)=O)nn3)=C(C[C@@H](C)C[C@H](OC)[C@H](O)[C@@H](C)/C=C(\C)[C@@H]1OC(N)=O)C2=O
- selectivity ratio [3]: 1.91
- IC50 at 72 h [2]: 1.51 µM
- IC50 (SK-OV-3): 0.79 µM
- selectivity ratio [4]: 1.62
- selectivity ratio [5]: 1.96
- IC50 (SK-BR-3): 0.77 µM
- IC50 (PC-3): 0.93 µM

Compound: CO[C@H]1/C=C\C=C(/C)C(=O)NC2=CC(=O)C(NCc3cn(Cc4ccc([N+](=O)[O-])o4)nn3)=C(C[C@@H](C)C[C@H](OC)[C@H](O)[C@@H](C)/C=C(\C)[C@@H]1OC(N)=O)C2=O
- selectivity ratio [3]: 1.83
- IC50 at 72 h [2]: 3.82 µM
- IC50 (SK-OV-3): 2.09 µM
- selectivity ratio [4]: 1.78
- selectivity ratio [5]: 1.8
- IC50 (SK-BR-3): 2.12 µM
- IC50 (PC-3): 2.15 µM

Compound: CO[C@H]1/C=C\C=C(/C)C(=O)NC2=CC(=O)C(NCc3cn([C@@H]4O[C@H](CO)[C@@H](O)[C@H](O)[C@H]4NC(C)=O)nn3)=C(C[C@@H](C)C[C@H](OC)[C@H](O)[C@@H](C)/C=C(\C)[C@@H]1OC(N)=O)C2=O
- selectivity ratio [3]: 1.15
- IC50 at 72 h [2]: 2.13 µM
- IC50 (SK-OV-3): 1.86 µM
- selectivity ratio [4]: 1.16
- selectivity ratio [5]: 1.85
- IC50 (SK-BR-3): 1.75 µM
- IC50 (PC-3): 1.84 µM

Compound: CO[C@H]1/C=C\C=C(/C)C(=O)NC2=CC(=O)C(NCc3cn(Cc4cccc(C#N)c4)nn3)=C(C[C@@H](C)C[C@H](OC)[C@H](O)[C@@H](C)/C=C(\C)[C@@H]1OC(N)=O)C2=O
- selectivity ratio [3]: 1.62
- IC50 at 72 h [2]: 7.44 µM
- IC50 (SK-OV-3): 4.6 µM
- selectivity ratio [4]: 1.65
- selectivity ratio [5]: 1.65
- IC50 (SK-BR-3): 4.51 µM
- IC50 (PC-3): 4.51 µM

Compound: Cc1c2oc3c(C)ccc(C(=O)N[C@@H]4C(=O)N[C@H](C(C)C)C(=O)N5CCC[C@H]5C(=O)N(C)CC(=O)N(C)[C@@H](C(C)C)C(=O)O[C@@H]4C)c3nc-2c(C(=O)N[C@@H]2C(=O)N[C@H](C(C)C)C(=O)N3CCC[C@H]3C(=O)N(C)CC(=O)N(C)[C@@H](C(C)C)C(=O)O[C@@H]2C)c(N)c1=O [DACTINOMYCIN] (I: T[dV]P[Sar][NMeV] / II: T[dV]P[Sar][NMeV]; ester I:1-I:C, II:1-II:C; linker I:N-II:N via Actinocin(9to1))
- selectivity ratio [3]: 2.63
- IC50 at 72 h [2]: 1.63 µM
- IC50 (SK-OV-3): 0.62 µM
- selectivity ratio [4]: 2.3
- selectivity ratio [5]: 2.4
- IC50 (SK-BR-3): 0.68 µM
- IC50 (PC-3): 0.71 µM

Compound: CCN(CC)CCn1cc(CNC2=C3C[C@@H](C)C[C@H](OC)[C@H](O)[C@@H](C)/C=C(\C)[C@H](OC(N)=O)[C@@H](OC)/C=C\C=C(/C)C(=O)NC(=CC2=O)C3=O)nn1
- selectivity ratio [3]: 1.85
- IC50 at 72 h [2]: 0.96 µM
- IC50 (SK-OV-3): 0.52 µM
- selectivity ratio [4]: 1.88
- selectivity ratio [5]: 1.63
- IC50 (SK-BR-3): 0.59 µM
- IC50 (PC-3): 0.51 µM

Compound: C#CCNC1=C2C[C@@H](C)C[C@H](OC)[C@H](O)[C@@H](C)/C=C(\C)[C@H](OC(N)=O)[C@@H](OC)/C=C\C=C(/C)C(=O)NC(=CC1=O)C2=O
- selectivity ratio [3]: 1.74
- IC50 at 72 h [2]: 7.36 µM
- IC50 (SK-OV-3): 4.23 µM
- selectivity ratio [4]: 1.8
- selectivity ratio [5]: 1.84
- IC50 (SK-BR-3): 4.01 µM
- IC50 (PC-3): 4.09 µM

Compound: CO[C@H]1/C=C\C=C(/C)C(=O)NC2=CC(=O)C(NCc3cn([C@@H]4O[C@H](CO)[C@@H](O[C@@H]5O[C@H](CO)[C@H](O)[C@H](O)[C@H]5O)[C@H](O)[C@H]4O)nn3)=C(C[C@@H](C)C[C@H](OC)[C@H](O)[C@@H](C)/C=C(\C)[C@@H]1OC(N)=O)C2=O
- selectivity ratio [3]: 1.45
- IC50 at 72 h [2]: 4.11 µM
- IC50 (SK-OV-3): 2.84 µM
- selectivity ratio [4]: 1.45
- selectivity ratio [5]: 1.44
- IC50 (SK-BR-3): 2.85 µM
- IC50 (PC-3): 2.83 µM

Compound: CO[C@H]1/C=C\C=C(/C)C(=O)NC2=CC(=O)C(NCc3cn(CCN4C(=O)c5ccccc5C4=O)nn3)=C(C[C@@H](C)C[C@H](OC)[C@H](O)[C@@H](C)/C=C(\C)[C@@H]1OC(N)=O)C2=O
- selectivity ratio [3]: 1.53
- IC50 at 72 h [2]: 1.96 µM
- IC50 (SK-OV-3): 1.28 µM
- selectivity ratio [4]: 1.52
- selectivity ratio [5]: 1.61
- IC50 (SK-BR-3): 1.22 µM
- IC50 (PC-3): 1.29 µM
